# From patent US20100119512A1, “METHODS OF DIAGNOSING, TREATING, AND PREVENTING INCREASED VASCULAR PERMEABILITY” (Joslin Diabetes Center, priority 2007, published 2010)
# B1: C1-INH: C1 inhibitor; binds covalently to the active site of FXII (protein, UniProt P05155 23-500, looked up)
# Plasma protease C1 inhibitor: NPNATSSSSQDPESLQDRGEGKVATTVISKMLFVEPILEVSSLPTTNSTTNSATKITANTTDEPTTQPTTEPTTQPTIQPTQPTTQLPTDSPTQPTTGSFCPGPVTLCSDLESHSTEAVLGDALVDFSLKLYHAFSAMKKVETNMAFSPFSIASLLTQVLLGAGENTKTNLESILSYPKDFTCVHQALKGFTTKGVTSVSQIFHSPDLAIRDTFVNASRTLYSSSPRVLSNNSDANLELINTWVAKNTNNKISRLLDSLPSDTRLVLLNAIYLSAKWKTTFDPKKTRMEPFHFKNSVIKVPMMNSKKYPVAHFIDQTLKAKVGQLQLSHNLSLVILVPQNLKHRLEDMEQALSPSVFKAIMEKLEMSKFQPTLLTLPRIKVTTSQDMLSIMEKLEFFDFSYDLNLCGLTEDPDLQVSAMQHQTVLELTETGVEAAAASAISVARTLLVFEVQQPFLFVLWDQQHKFPVFMGRVYDPRA
# Experiments:
# [1] = tested on: prekallikrein (PK) activation by FXII; experiment: PK activation by FXII in the presence of HK, fluorogenic kallikrein substrate; type: biochemical, human; details: for effect on kallikrein activation in vitro: PK activation by FXII in the presence of HK
# Method: FIG. 2 is a line graph illustrating the effect of varying concentrations of C1-INH on PK activation by FXII in the presence of HK. Kallikrein activity was measured as cleavage of synthetic fluorogenic kallikrein substrate (0.4 mM) on a microplate reader at 37° C. at 15 minutes (means±s.e.m.; n=4).
# FIG. 3 is line graph illustrating the effect of varying concentrations of anti-PK antibody on PK activation by FXII in the presence of HK (means±s.e.m. n=5-6).
# The effects of C1-INH and anti-PK antibody on the kinetics of PK activation by factor XII (FXII) were monitored in vitro using a fluorescent kallikrein substrate. Fluorogenic kallikrein substrate (H-D-Val-Leu-Arg-AFC; Calbiochem) was used to quantify kallikrein enzymatic activity.
# [2] = tested on: retinal vascular permeability; details: rats, cited from earlier work
molecule,measurement,setting,value
"CA-I: human erythrocyte CA-I (Sigma), carbonic anhydrase 1",effect on kallikrein activation in vitro,[1],Neither CA-I or bicarbonate ion affected
same,effect of intravitreal injection on retinal vascular permeability,[2]; intravitreal,increased
"CC(=O)Nc1nnc(S(N)(=O)=O)s1 [acetazolamide, reference compound]",effect on increased retinal permeability induced by transplant of vitreous from patients with advanced diabetic retinopathy,[2],blocked
O=C(O)O [bicarbonate ion],effect on kallikrein activation in vitro,[1],Neither CA-I or bicarbonate ion affected
B1,effect on PK activation (kallikrein activity),"[1]; varying concentrations, FXII and HK present, fluorogenic kallikrein substrate 0.4 mM, 37° C., 15 minutes",inhibited
same,effect on CA-1-induced retinal vascular permeability,[2]; intravitreal CA-1,blocked
